Test results from ChEMBL document CHEMBL5247643, “Discovery and Characterization of BAY-805, a Potent and Selective Inhibitor of Ubiquitin-Specific Protease USP21” (J Med Chem, 2023).

Key:
Conditions in all cases: dose 10-50 µM
[1] = biological target: T1, Ubiquitin carboxyl-terminal hydrolase 15 (Homo sapiens) (UniProt Q9Y4E8); test: Inhibition of human USP15 (1 to 952 residues) expressed in Sf9 cells using ubiquitin rhodamine 110 as substrate assessed as remaining enzyme activity at 10 to 50 uM by fluorometric assay
T1 sequence (whole entry): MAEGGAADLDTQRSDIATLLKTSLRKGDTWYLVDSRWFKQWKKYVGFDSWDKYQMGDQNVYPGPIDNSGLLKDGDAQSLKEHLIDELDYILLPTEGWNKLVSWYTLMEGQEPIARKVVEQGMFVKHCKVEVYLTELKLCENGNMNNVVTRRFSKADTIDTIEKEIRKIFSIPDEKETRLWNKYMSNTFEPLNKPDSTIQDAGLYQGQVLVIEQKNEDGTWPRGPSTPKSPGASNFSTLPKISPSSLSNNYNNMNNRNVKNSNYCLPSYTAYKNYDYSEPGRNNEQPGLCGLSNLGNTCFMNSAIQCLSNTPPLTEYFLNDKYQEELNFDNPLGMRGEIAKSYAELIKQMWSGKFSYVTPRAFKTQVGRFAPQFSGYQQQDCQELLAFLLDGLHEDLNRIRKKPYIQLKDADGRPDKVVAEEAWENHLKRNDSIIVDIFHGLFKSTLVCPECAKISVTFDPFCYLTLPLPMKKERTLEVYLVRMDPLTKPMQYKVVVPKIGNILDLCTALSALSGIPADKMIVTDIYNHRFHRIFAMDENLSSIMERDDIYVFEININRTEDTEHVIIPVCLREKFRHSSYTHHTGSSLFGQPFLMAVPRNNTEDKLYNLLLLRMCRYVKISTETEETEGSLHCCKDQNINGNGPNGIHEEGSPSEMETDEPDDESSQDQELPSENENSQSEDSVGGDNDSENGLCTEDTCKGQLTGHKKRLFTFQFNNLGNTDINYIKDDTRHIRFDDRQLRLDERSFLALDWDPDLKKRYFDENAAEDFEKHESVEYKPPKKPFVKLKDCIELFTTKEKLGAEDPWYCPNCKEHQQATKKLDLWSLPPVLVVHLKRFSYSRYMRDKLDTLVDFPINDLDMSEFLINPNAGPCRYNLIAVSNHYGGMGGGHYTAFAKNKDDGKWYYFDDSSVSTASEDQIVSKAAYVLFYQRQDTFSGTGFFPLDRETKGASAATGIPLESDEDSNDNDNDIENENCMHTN

[2] = biological target: Ataxin-3 (Homo sapiens) (UniProt P54252); test: Inhibition of human Ataxin-3 (1 to 370 residues) expressed in Escherichia coli BL21 (DE3) using ubiquitin rhodamine 110 as substrate assessed as remaining enzyme activity at 10 to 50 uM by fluorometric assay
Ataxin-3 (Homo sapiens), sequence (P54252 whole entry, the tested form may be a part): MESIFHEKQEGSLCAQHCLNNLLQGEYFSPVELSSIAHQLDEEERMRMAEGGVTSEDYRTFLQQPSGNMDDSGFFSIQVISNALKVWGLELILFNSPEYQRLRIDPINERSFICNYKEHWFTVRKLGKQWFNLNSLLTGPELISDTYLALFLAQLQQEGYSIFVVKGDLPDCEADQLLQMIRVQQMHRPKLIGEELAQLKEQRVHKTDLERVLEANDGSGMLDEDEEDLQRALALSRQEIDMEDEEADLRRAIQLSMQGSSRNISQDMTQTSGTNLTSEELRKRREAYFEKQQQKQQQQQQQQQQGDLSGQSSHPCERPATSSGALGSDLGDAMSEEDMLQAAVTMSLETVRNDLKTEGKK

[3] = biological target: T2, Ubiquitin carboxyl-terminal hydrolase 30 (Homo sapiens) (UniProt Q70CQ3); test: Inhibition of human USP30 (57 to 517 residues) expressed in Sf9 cells using ubiquitin rhodamine 110 as substrate assessed as remaining enzyme activity at 10 to 50 uM by fluorometric assay
T2 sequence (whole entry): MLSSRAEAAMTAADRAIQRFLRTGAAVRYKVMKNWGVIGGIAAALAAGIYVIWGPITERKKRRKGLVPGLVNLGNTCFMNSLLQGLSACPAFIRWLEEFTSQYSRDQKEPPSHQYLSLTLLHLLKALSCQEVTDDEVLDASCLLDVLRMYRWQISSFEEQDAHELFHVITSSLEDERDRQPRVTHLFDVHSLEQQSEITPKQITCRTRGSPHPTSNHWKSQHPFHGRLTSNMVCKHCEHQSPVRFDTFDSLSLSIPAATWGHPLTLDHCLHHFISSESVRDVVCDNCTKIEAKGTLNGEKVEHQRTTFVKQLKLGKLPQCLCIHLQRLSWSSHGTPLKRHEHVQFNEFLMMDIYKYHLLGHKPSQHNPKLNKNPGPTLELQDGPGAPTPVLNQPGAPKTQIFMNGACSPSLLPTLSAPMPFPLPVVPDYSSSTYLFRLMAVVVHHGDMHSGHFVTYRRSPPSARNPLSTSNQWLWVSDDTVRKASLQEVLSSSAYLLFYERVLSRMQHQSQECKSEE

[4] = biological target: T3, Ubiquitin carboxyl-terminal hydrolase 8 (Homo sapiens) (UniProt P40818); test: Inhibition of human USP8 (734 to 1110 residues) expressed in Escherichia coli BL21 (DE3) using ubiquitin rhodamine 110 as substrate assessed as remaining enzyme activity at 10 to 50 uM by fluorometric assay
T3 sequence (whole entry): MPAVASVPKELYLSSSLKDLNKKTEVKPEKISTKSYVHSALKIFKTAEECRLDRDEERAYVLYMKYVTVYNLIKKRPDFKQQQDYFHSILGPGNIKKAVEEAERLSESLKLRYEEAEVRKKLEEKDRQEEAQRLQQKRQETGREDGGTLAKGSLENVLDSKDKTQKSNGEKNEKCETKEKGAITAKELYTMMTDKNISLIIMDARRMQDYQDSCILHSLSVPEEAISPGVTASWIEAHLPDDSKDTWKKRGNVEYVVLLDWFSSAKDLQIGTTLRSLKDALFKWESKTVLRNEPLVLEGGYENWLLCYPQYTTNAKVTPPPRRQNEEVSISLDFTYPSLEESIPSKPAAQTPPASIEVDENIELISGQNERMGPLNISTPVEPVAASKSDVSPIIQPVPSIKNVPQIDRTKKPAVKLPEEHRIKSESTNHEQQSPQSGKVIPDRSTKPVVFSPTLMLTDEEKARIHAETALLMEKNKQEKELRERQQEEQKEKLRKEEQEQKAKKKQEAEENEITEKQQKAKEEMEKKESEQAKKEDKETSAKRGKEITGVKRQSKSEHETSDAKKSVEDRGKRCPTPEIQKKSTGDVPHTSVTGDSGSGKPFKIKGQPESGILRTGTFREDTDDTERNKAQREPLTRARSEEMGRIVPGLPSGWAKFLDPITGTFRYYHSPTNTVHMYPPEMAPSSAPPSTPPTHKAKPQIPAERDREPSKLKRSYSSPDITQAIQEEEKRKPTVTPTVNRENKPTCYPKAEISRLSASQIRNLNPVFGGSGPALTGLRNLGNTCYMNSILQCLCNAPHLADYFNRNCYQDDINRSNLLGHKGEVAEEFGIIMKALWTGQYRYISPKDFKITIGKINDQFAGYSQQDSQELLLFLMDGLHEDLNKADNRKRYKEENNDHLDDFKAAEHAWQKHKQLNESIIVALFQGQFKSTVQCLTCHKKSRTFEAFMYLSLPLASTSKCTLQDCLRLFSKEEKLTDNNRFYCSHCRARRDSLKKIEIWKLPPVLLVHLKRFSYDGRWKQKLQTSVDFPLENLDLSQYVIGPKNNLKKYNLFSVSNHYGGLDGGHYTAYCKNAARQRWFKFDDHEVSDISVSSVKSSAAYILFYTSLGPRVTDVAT

[5] = biological target: Ubiquitin carboxyl-terminal hydrolase 7 (Homo sapiens) (UniProt Q93009); test: Inhibition of human USP7 (1 to 1102 residues) expressed in Sf9 cells using ubiquitin rhodamine 110 as substrate assessed as remaining enzyme activity at 10 to 50 uM by fluorometric assay
Ubiquitin carboxyl-terminal hydrolase 7 (Homo sapiens), sequence (Q93009 whole entry, looked up, the tested form may be a part): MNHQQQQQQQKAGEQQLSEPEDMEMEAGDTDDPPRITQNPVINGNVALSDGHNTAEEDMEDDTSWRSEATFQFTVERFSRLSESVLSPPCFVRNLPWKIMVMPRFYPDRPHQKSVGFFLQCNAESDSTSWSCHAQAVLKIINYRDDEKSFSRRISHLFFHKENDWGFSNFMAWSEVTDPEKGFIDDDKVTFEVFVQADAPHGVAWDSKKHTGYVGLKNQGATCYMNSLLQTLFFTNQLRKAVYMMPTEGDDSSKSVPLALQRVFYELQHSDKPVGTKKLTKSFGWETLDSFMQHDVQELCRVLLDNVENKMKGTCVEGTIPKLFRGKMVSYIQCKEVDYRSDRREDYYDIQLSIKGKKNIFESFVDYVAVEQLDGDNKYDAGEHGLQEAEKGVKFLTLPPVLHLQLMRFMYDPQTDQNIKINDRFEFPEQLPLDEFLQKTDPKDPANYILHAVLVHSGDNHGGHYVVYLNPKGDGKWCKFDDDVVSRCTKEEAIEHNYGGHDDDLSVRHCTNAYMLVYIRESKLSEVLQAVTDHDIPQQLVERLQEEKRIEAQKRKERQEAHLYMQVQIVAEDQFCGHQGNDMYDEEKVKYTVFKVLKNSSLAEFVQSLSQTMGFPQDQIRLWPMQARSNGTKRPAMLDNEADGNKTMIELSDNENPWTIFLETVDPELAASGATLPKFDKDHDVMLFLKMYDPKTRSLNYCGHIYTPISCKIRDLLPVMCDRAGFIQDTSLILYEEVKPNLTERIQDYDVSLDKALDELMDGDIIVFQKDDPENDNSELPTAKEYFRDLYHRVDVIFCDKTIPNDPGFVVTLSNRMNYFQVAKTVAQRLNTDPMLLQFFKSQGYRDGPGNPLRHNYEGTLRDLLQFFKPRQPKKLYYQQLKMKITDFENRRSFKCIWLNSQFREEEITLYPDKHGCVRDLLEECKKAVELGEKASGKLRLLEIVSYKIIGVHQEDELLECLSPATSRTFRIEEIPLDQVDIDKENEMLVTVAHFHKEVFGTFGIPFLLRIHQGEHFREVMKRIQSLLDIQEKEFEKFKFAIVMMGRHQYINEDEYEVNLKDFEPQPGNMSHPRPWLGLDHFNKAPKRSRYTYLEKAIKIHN

Measured: Activity

CC(NC(=O)C1CCCC1)C(=O)Nc1nnc(Cc2ccc([N+](=O)[O-])cc2)s1 (racemic)
< 50%: all assays above
